20 compounds from PubChem BioAssay AID192 (DTP/NCI, 2004) can be followed below.

Toxic doses and inconclusive results are not listed.

This test has as its system BDF1 mice, B16 melanoma ip, median survival T/C. Briefly: NCI In Vivo Anticancer Drug Screen. Data for tumor model B16 Melanoma (intraperitoneal) in B6D2F1 (BDF1) mice. The settings on record: endpoint: median survival time, higher = longer survival. In a few lines:
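Mice with transplantable tumors; drug vs vehicle groups; endpoint survival or tumor size; value = T/C.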

Where [1] appears, read: dose: 100.0 mg/kg/injection, schedule: Q04DX003 (ip), vehicle: saline with Tween-80.
[2] abbreviates: dose: 200.0 mg/kg/injection, schedule: Q04DX003 (ip), vehicle: saline with Tween-80.
Setting [3] is: dose: 12.5 mg/kg/injection, schedule: Q01DX009 (ip), vehicle: saline.
The mark [4] stands for this setting: dose: 25.0 mg/kg/injection, schedule: Q01DX009 (ip), vehicle: saline.
Where [5] appears, read: dose: 50.0 mg/kg/injection, schedule: Q01DX009 (ip), vehicle: saline.
Setting [6] is: dose: 100.0 mg/kg/injection, schedule: Q01DX009 (ip), vehicle: saline.
Setting [7] is: dose: 50.0 mg/kg/injection, schedule: Q01DX009 (ip), vehicle: Klucel (hydroxypropylcellulose) (HPC).
The mark [8] stands for this setting: dose: 100.0 mg/kg/injection, schedule: Q01DX009 (ip), vehicle: Klucel (hydroxypropylcellulose) (HPC).
The mark [9] stands for this setting: dose: 200.0 mg/kg/injection, schedule: Q01DX009 (ip), vehicle: Klucel (hydroxypropylcellulose) (HPC).
The mark [10] stands for this setting: dose: 200.0 mg/kg/injection, schedule: Q04DX003 (ip), vehicle: Klucel (hydroxypropylcellulose) (HPC).
[11] abbreviates: dose: 200.0 mg/kg/injection, schedule: Q04DX003 (ip), vehicle: saline.
Where [12] appears, read: dose: 400.0 mg/kg/injection, schedule: Q04DX003 (ip), vehicle: Klucel (hydroxypropylcellulose) (HPC).
Where [13] appears, read: dose: 6.25 mg/kg/injection, schedule: Q01DX009 (ip), vehicle: saline.

Consider `OC(Cc1nc(-c2ccccc2)c(-c2ccccc2)s1)(C(F)(F)F)C(F)(F)F`, for which the T/C is 105 % of control under setting [1] and 86 % of control under setting [2].
For `CN(C)CCCN1c2ccccc2S(=O)c2ccc(Cl)cc21` (stereo not given), the T/C is, setting by setting: under setting [3], 97 % of control; under setting [4], 100 % of control; under setting [5], 108 % of control; under setting [6], 94 % of control.
As for `O=C1NC(=O)c2ccccc21`, the T/C is, setting by setting: (dose: 200.0 mg/kg/injection, schedule: Q01DX009 (ip), vehicle: saline) 97 % of control; (dose: 400.0 mg/kg/injection, schedule: Q01DX009 (ip), vehicle: saline) 95 % of control.
As for `O=S(=O)(O)C(Nc1ccccc1)c1ccccc1` (stereo not given), the T/C was 93 % of control (dose: 100.0 mg/kg/injection, schedule: Q01DX009 (ip), vehicle: saline sonified); 93 % of control (dose: 200.0 mg/kg/injection, schedule: Q01DX009 (ip), vehicle: saline sonified); 102 % of control (dose: 400.0 mg/kg/injection, schedule: Q01DX009 (ip), vehicle: saline sonified).
Regarding `Cc1c2cc3c(c1O)C(=O)CC(O3)c1ccc(O)c(c1)-c1cccc(c1O)C(=O)OCC1OC(O2)C(O)C(O)C1O` (stereo not given), the T/C runs as follows: (dose: 0.13 mg/kg/injection, schedule: Q01DX009 (ip), vehicle: Klucel (hydroxypropylcellulose) (HPC)) 93 % of control; (dose: 0.25 mg/kg/injection, schedule: Q01DX009 (ip), vehicle: Klucel (hydroxypropylcellulose) (HPC)) 95 % of control; (dose: 0.5 mg/kg/injection, schedule: Q01DX009 (ip), vehicle: Klucel (hydroxypropylcellulose) (HPC)) 89 % of control; (dose: 1.0 mg/kg/injection, schedule: Q01DX009 (ip), vehicle: Klucel (hydroxypropylcellulose) (HPC)) 88 % of control.
As to `O=Cc1ccc(C=O)c(Cl)c1`, the T/C is, setting by setting: under setting [7], 97 % of control; under setting [8], 109 % of control; under setting [9], 107 % of control; (dose: 400.0 mg/kg/injection, schedule: Q01DX009 (ip), vehicle: Klucel (hydroxypropylcellulose) (HPC)) 104 % of control.
In the case of `CC(C)(CO)C(O)C(=O)NNCc1ccccc1` (stereo not given), the T/C was 102 % of control (dose: 25.0 mg/kg/injection, schedule: Q04DX003 (ip), vehicle: Klucel (hydroxypropylcellulose) (HPC)); 95 % of control (dose: 25.0 mg/kg/injection, schedule: Q04DX003 (ip), vehicle: saline); 90 % of control (dose: 50.0 mg/kg/injection, schedule: Q04DX003 (ip), vehicle: Klucel (hydroxypropylcellulose) (HPC)); 99 % of control (dose: 50.0 mg/kg/injection, schedule: Q04DX003 (ip), vehicle: saline); 100 % of control (dose: 100.0 mg/kg/injection, schedule: Q04DX003 (ip), vehicle: saline); 92 % of control under setting [10]. Also, the T/C by setting is: under setting [11], 100 % of control; under setting [12], 95 % of control; (dose: 400.0 mg/kg/injection, schedule: Q04DX003 (ip), vehicle: saline) 91 % of control.
For `CCOC(=O)CNC(=O)CCCCSc1ncnc2nc[nH]c12`, the T/C runs as follows: (dose: 20.0 mg/kg/injection, schedule: Q01DX009 (ip), vehicle: Klucel (hydroxypropylcellulose) (HPC)) 88 % of control; (dose: 40.0 mg/kg/injection, schedule: Q01DX009 (ip), vehicle: Klucel (hydroxypropylcellulose) (HPC)) 91 % of control; (dose: 80.0 mg/kg/injection, schedule: Q01DX009 (ip), vehicle: Klucel (hydroxypropylcellulose) (HPC)) 89 % of control; (dose: 160.0 mg/kg/injection, schedule: Q01DX009 (ip), vehicle: Klucel (hydroxypropylcellulose) (HPC)) 89 % of control; (dose: 320.0 mg/kg/injection, schedule: Q01DX009 (ip), vehicle: Klucel (hydroxypropylcellulose) (HPC)) 87 % of control.
As for `CCCC1(CCC)CN(CO)C1=O`, the T/C is, setting by setting: under setting [3], 100 % of control; under setting [4], 100 % of control; under setting [5], 106 % of control; under setting [6], 111 % of control; under setting [11], 91 % of control.
For the compound `Clc1cccc(/C=C2\c3cc(Cl)ccc3-c3c(Cl)cc(Cl)cc32)c1`, the T/C was 100 % of control (dose: 200.0 mg/kg/injection, schedule: Q01DX009 (ip), vehicle: saline with Tween-80); 97 % of control (dose: 400.0 mg/kg/injection, schedule: Q01DX009 (ip), vehicle: saline with Tween-80); 93 % of control (dose: 800.0 mg/kg/injection, schedule: Q01DX009 (ip), vehicle: saline with Tween-80).
For `Nc1nc(=S)c2ncn(C3OC(COC(=O)c4ccc(Cl)cc4)C(OC(=O)c4ccc(Cl)cc4)C3OC(=O)c3ccc(Cl)cc3)c2[nH]1` (stereo not given), the T/C is 116 % of control (dose: 18.75 mg/kg/injection, schedule: Q01DX009 (ip), vehicle: Klucel (hydroxypropylcellulose) (HPC)); 120 % of control (dose: 37.5 mg/kg/injection, schedule: Q01DX009 (ip), vehicle: Klucel (hydroxypropylcellulose) (HPC)); 116 % of control (dose: 75.0 mg/kg/injection, schedule: Q01DX009 (ip), vehicle: Klucel (hydroxypropylcellulose) (HPC)); 109 % of control (dose: 150.0 mg/kg/injection, schedule: Q01DX009 (ip), vehicle: Klucel (hydroxypropylcellulose) (HPC)).
Consider `Cc1c2cc[n+](C)cc2c(C)c2c1[nH]c1ccc(O)cc12`, for which the T/C is 111 % of control (dose: 0.06 mg/kg/injection, schedule: Q01DX009 (ip), vehicle: water) and 158 % of control (dose: 0.25 mg/kg/injection, schedule: Q01DX009 (ip), vehicle: water).
Take `O=C1OC2CC1(O)CC(O)C2O` (stereo not given): the T/C is, setting by setting: under setting [13], 111 % of control; under setting [3], 92 % of control; under setting [4], 101 % of control; (dose: 50.0 mg/kg/injection, schedule: Q04DX003 (ip), vehicle: saline with Tween-80) 103 % of control; under setting [1], 97 % of control; under setting [2], 94 % of control.
Turning to `C=C1C(=O)C23[C@H](O)C1CC[C@H]2[C@]12COC3(O)[C@@H](O)[C@@H]1C(C)(C)CC[C@@H]2O`, the T/C runs as follows: (dose: 1.56 mg/kg/injection, schedule: Q01DX009 (ip), vehicle: saline with Tween-80) 105 % of control; (dose: 3.12 mg/kg/injection, schedule: Q01DX009 (ip), vehicle: saline with Tween-80) 93 % of control; (dose: 6.25 mg/kg/injection, schedule: Q01DX009 (ip), vehicle: saline with Tween-80) 96 % of control.
Take `CCCCNS(=O)(=O)c1ccc(OC)c(N)c1`: the T/C by setting is: (dose: 100.0 mg/kg/injection, schedule: Q04DX003 (ip), vehicle: Klucel (hydroxypropylcellulose) (HPC)) 95 % of control; under setting [10], 95 % of control; under setting [12], 111 % of control.
Consider `Clc1ccc(/C=N\N=C\c2ccc(Cl)c(Cl)c2)cc1Cl`, for which the T/C under setting [8] was 90 % of control and the T/C under setting [9] is 90 % of control.
Regarding `CN1C2CCC1CC(OC1c3ccccc3CCc3ccccc31)C2` (stereo not given), the T/C (dose: 3.12 mg/kg/injection, schedule: Q01DX009 (ip), vehicle: saline) was 90 % of control; the T/C under setting [13] is 97 % of control; the T/C under setting [3] is 97 % of control.
Take `Cc1cnc(=S)[nH]c1N`: the T/C under setting [7] is 108 % of control, the T/C under setting [8] is 97 % of control and the T/C under setting [9] was 94 % of control.
In the case of `CCOC(=O)N1CCN(CCCCCOc2ccccc2C2CCCCC2)CC1`, for the setting “dose: 50.0 mg/kg/injection, schedule: Q01DX009 (ip), vehicle: saline with Tween-80”, the T/C was 103 % of control.
As to `Cc1ccc(NC(=O)Nc2ccc(C)c(NC(=O)Nc3ccc(C)cc3C)c2)c(C)c1`, the T/C is, setting by setting: under setting [8], 91 % of control; under setting [9], 96 % of control.
